Data set [1] can be described thus: Aggregation in solution judged from linear plots of UV-vis absorbance (ε determination). The format is physicochemical. Conditions: low concentrations relevant for UV-vis measurements, 10^−4-10^−6 M. The source says:
(§1) The most variable compounds of the invention are 2 and 3, because of the easy substitution of the chloride in the —SO2Cl functions of 2 and the large variety of metal ions that can be inserted into either 2 or 3. In the present example, metallation of compound 3 is described. Generally, the same methods that were developed for corrole 1 worked for 3 as well: GaCl3/pyridine for obtaining compound 15, the gallium(III) complex of 3; Mn(OAc)2/DMF for obtaining compound 16, the manganese(III) complex of 3; Co(OAc)2/PPh3/EtOH for obtaining compound 17, the (triphenylphosphine)cobalt(III) complex of 3; SnCl2.2H2O/DMF for obtaining compound 18, the (chloro)tin(IV) complex of 3; and CrCl2/pyridine for obtaining compound 19, the (bis-pyridine)chromium(III) complex of 3.

Data set [2] can be described thus: Solubility in water of compound 3 and its metal complexes. It counts as physicochemical.
Source text: as §1

The results in this text go back to patent publication US6939963B2, “Method for the preparation of selectively-substituted corroles and new substituted corroles” (Technion Research and Development Foundation Ltd., priority 2001, dated 2005).

Turning to `O=S(=O)(O)C1=Cc2nc1c(-c1c(F)c(F)c(F)c(F)c1F)c1ccc([nH]1)c(-c1c(F)c(F)c(F)c(F)c1F)c1ccc([nH]1)c(-c1c(F)c(F)c(F)c(F)c1F)c1cc(S(=O)(=O)O)c2[nH]1` [Compound 3, 5,10,15-Tris(pentafluorophenyl)-2,17-bis(sulfonic acid)-corrole], the “aggregation (linear plots obtained for elucidating the ε values)” value in data set [1] is on record as “absence of aggregation”. Also, in data set [2], the solubility in water result is recorded as “soluble in water”.
